Data: PMC7013346, “Bioaccessibility and Pharmacokinetics of a Commercial Saffron (Crocus sativus L.) Extract” (Evidence-based Complementary and Alternative Medicine : eCAM, 2020)
Like-named read-outs stand apart in the source and are kept apart here. Marks after values point to notes of the source that are not given here.

Experiments:
[1] = Single-dose pharmacokinetics of crocetin in plasma after oral affron® tablets in healthy volunteers; assay type: in vivo, human; settings: for Detection in plasma after affron® intake: human plasma, 0.5-3 h and 24 h after 56 or 84 mg affron®, HPLC
Protocol: A single dose, randomized, double blinded study was used to evaluate the pharmacokinetics of two different saffron doses (56 mg and 84 mg). The randomization code was generated by Random Allocation Software, sealed envelope (London, UK). Enrolled participants were then allocated to one of two groups: group 1: consumed 4 × 14 mg of affron® tablets (56 mg single dose); group: 2 : 6 × 14 mg of affron® tablets (84 mg single dose).
The subjects of the pharmacokinetics were adult male (n = 5) and female (n = 8; nonpregnant and nonlactating) healthy volunteers of 18–30 years age. All participants self-reported to be in normal physical health (BMI < 30) and passed the exclusion screening. Exclusion criteria included suffering clinically significant medical condition, such as, but not limited to, cardiovascular, neurological, psychiatric, renal, immunological, endocrine (including uncontrolled diabetes or thyroid disease), or uncontrolled haematological abnormalities. Other exclusion criteria were the use within the past 3 months of the tested compounds and/or antioxidants; no current use of prescription medications except the oral contraceptive pill in women; and known allergy to any tested compound and/or antioxidant.
All participants were advised to fast from 10 : 00 pm prior to the study until the collection of the first blood sample. Fasting was broken immediately after dosing the corresponding tablets. At time 0 h and at 4 h after dosing, balanced breakfasts (410 kcal, approximately 30% of them from fats) and lunches (625 kcal, approximately 30% from fats) were served at the center. The meals were poor in carotenoids. Subjects remained onsite for the full first 6 hours of sample collection and returned to the center again for the 24 h samples. Subjects were monitored and asked to report any possible side-effects experienced due to intake of the tablets during the whole 24 h time after the intake of the tablets.
For crocetin pharmacokinetic analysis, blood samples (3 ml collected into tubes with EDTA) were drawn prior to affron® supplementation (time 0 h), between time 30 and 180 min at every 30 min and 24 h after supplementation. The blood tubes were briefly mixed by inversion and put on ice and centrifuged (600 g, 4°C for 10 min) to separate the plasma. The EDTA-plasma of every sample was carefully removed in 3 aliquots (500 μl each) and stored at −20°C for less than 48 h before being finally transported and stored at −80°C.
Plasma samples were extracted based on the method described and validated by Mohammadpour et al.. Briefly, plasma samples were thawed to room temperature. Then, 20 μl of an internal standard solution of 13-cis-retinoic acid and 120 μl acetonitrile were added to 100 μl of sample. The samples tubes were capped and vortexed for 10 s and put on ice for 5 min. The samples were then gently rotated for 10 minutes before centrifuging at 12000 g for 10 min. The supernatant was collected and analysed by HPLC.
The efficiency of the extraction process was estimated by the measure of the residual amount of the internal standard, and 13-cis-retinoic acid was recovered after the analysis. The recovery percentage was then applied to the results to calculate the true concentration of crocetin in the samples.
The chromatogram of a sample of pure standard crocetin and its typical absorption wavelength were used to identify and confirm the crocetin peak in every analysis, as shown in Mohammadpour et al..
The crocetin concentration in biological samples was calculated using a standard linear curve at several crocetin concentration and the Shimadzu software for chromatogram analysis. All samples fell within the range of the linear standard curve (concentration (μg/ml) = (AUC + 131.56)/9475). The intra-assay precision CV was 4.8%, and the interassay variability and precision CV were 7.3%, with a blood detection limit of 0.05 μg/ml.
Pharmacokinetic parameters were derived using GraphPad Prism 7.0 (California, USA). […]

[2] = Abiotic in vitro digestion (salivary, gastric, duodenal steps) of affron® tablets, HPLC-PAD/MS quantification; assay type: in vitro ADME; settings: for Bioactive molecule content, initial sample: affron® before in vitro digestion; for Bioactive molecule content, initial sample / Bioactive molecule content, digested sample, duodenal / Bioactive molecule content, digested sample, gastric / Bioactive molecule content, digested sample, salivary: mean ± SD; for Bioactive molecule content, digested sample, duodenal: after duodenal step, 150 min, pH 7, 37°C, pancreatin and bile extract; for Bioactive molecule content, digested sample, gastric: after gastric step, 90 min, pH 2, 37°C, pepsin; for Bioactive molecule content, digested sample, salivary: after salivary step, 5 min, pH 6.9, 37°C, α-amylase; for Bioaccessibility: after whole in vitro digestion of affron® tablets, relative to initial content
Protocol: Briefly, the salivary step runs for 5 min at pH 6.9 and 37°C, under aerobic conditions with 3.9 units α-[…]. Then, the samples were transferred for 90 min to the gastric step at pH 2 and 37°C with 71.2 units pepsin/ml under anaerobic conditions. Finally, the duodenal step was set for 150 min at pH 7 and 37°C, with 9.2 mg pancreatin/ml and 55.2 mg bile extract/ml under anaerobic conditions. Samples were taken from every steps and were centrifuged at 7000 g for 40 min at 4°C. […] All samples were analysed at least in duplicate. High-performance liquid chromatography (HPLC) analysis of bioactive components from initial and digested saffron extract was performed using an Agilent Technologies 1220 Infinity series system equipped with a photodiode array detector (PAD) according to Kell et al., while the analysis of crocetin was according to Umigai et al.. […] To estimate the percentage of bioaccessibility of the main bioactive compounds of affron®, an equation was used according to Ordoudi et al.

[3] = parameters: method as in PMID 21112749; settings: human, single oral dose of 22.5 mg of crocetin from G. jasminoides; cited from earlier work
[4] = parameters: method as in PMID 23638292; settings: human, single oral dose of 16 mg of saffron crocetins; cited from earlier work

Compound	Detection in plasma after affron® intake [1]	Detection in plasma after affron® intake ([1]; listed as picrocrocin)	Bioactive molecule content, initial sample [2]	Bioactive molecule content, digested sample, duodenal [2]	Bioactive molecule content, digested sample, gastric [2]	Bioactive molecule content, digested sample, salivary [2]	Bioaccessibility [2] [%]	Decrease of content after the digestion process ([2]; whole in vitro digestion vs initial conditions) [%]	half-life ([1]; both sexes, plasma, crocetin after oral affron® tablets, human, dose not separated, read-out: Plasmatic half-life (converted)) [min]	Clearance ([1]; crocetin after oral affron® tablets, human, dose not separated) [L/h]	Time after administration at which plasma crocetin fell to the HPLC-PAD quantification limit / ceased to be detected ([1]; human, 56 or 84 mg affron®) [h]	Crocetin concentration in plasma 24 h after affron® intake ([1]; human, 24 h, detection limit 0.05 μg/ml)	Change of concentration over the whole in vitro digestion process vs initial composition ([2]; salivary, stomach and duodenal steps)	Cmax [3] [ng/mL]	Cmax [4] [ng/mL]	Reduction of content during gastric digestion ([2]; acid-pepsin environment, gastric step) [%]	Detection in plasma after affron® intake ([1]; listed as safranal)	Bioactive molecule content, initial sample ([2]; listed as safranal)	Bioactive molecule content, digested sample, duodenal ([2]; listed as safranal)	Increase of content after the digestion process vs initial concentration ([2]; whole in vitro digestion)
CC1=C(C=O)C(C)(C)CC(O[C@@H]2O[C@H](CO)[C@@H](O)[C@H](O)[C@H]2O)C1 (stereo partly drawn) [Picrocrocin, 4-(β-D-glucopyranosyloxy)-2,6,6-trimethyl-1-cyclohexene-1-carboxaldehyde]	absent	not detected	3.21 ± 0.07^c %, dry basis	2.61 ± 0.05^b %, dry basis	2.07 ± 0.02^a %, dry basis	3.14 ± 0.11^c %, dry basis	81.31	19												
CC(/C=C/C=C(\C)C(=O)O)=C\C=C\C=C(C)\C=C\C=C(/C)C(=O)O [Crocetin]			0.03 ± 0.01^a %, dry basis	0.02 ± 0.01^a %, dry basis	0.03 ± 0.01^a %, dry basis	0.02 ± 0.01^a %, dry basis	66.67		51 ± 2.4	2.70 ± 0.14	3	below the detection limit	did not increase	280	350					
Kaempferol diglucoside			0.13 ± 0.01^b,c %, dry basis	0.09 ± 0.01^a %, dry basis	0.12 ± 0.01^b %, dry basis	0.14 ± 0.01^c %, dry basis	69.23													
CC(/C=C/C=C(\C)C(=O)O[C@@H]1O[C@H](CO[C@@H]2O[C@H](CO)[C@@H](O)[C@H](O)[C@H]2O)[C@@H](O)[C@H](O)[C@H]1O)=C\C=C\C=C(C)\C=C\C=C(/C)C(=O)O[C@@H]1O[C@H](CO[C@@H]2O[C@H](CO)[C@@H](O)[C@H](O)[C@H]2O)[C@@H](O)[C@H](O)[C@H]1O (relative stereo) [t-crocin-4, trans-crocin-4]			1.66 ± 0.04^b %, dry basis	0.20 ± 0.04^a %, dry basis	0.26 ± 0.03^a %, dry basis	1.11 ± 0.43^b %, dry basis	12.05									84				
CC1=C(C=O)C(C)(C)CC=C1 [Safranal]	not detected or appeared below the detection limit		0.04 ± 0.01^a %, dry basis	0.08 ± 0.01^b %, dry basis	0.21 ± 0.01^c %, dry basis	0.03 ± 0.00^a %, dry basis	200.00										not detected	0.04 %, dry basis	0.08 %, dry basis	about 2 folds
